# From ChEMBL document CHEMBL1201862, “PubChem BioAssay data set” (2004)
# The source made the active and inactive calls.
# Experiments:
# [1] = target: Tyrosyl-DNA phosphodiesterase 2 (Homo sapiens, UniProt O95551); test: potency against TDP2 phosphodiesterase activity – biochemical, epi absorbance, IC50, dose response (AID 743297)
# [2] = target: T1, Heat shock factor protein 1 (Mus musculus, UniProt P38532); test: enhancement of HSF1-driven luciferase signal – cell-based, NIH3T3, luminescence, dose retest, confirmation (AID 435004); assay type: functional;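 also: stress induced by proteasome inhibitor MG132 added 30 min after compound; luciferase reporter driven by HSF1 response element in NIH3T3 cells; actives raise luminescence as potentiators of the MG132 stress response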
# T1 sequence (P38532 whole entry): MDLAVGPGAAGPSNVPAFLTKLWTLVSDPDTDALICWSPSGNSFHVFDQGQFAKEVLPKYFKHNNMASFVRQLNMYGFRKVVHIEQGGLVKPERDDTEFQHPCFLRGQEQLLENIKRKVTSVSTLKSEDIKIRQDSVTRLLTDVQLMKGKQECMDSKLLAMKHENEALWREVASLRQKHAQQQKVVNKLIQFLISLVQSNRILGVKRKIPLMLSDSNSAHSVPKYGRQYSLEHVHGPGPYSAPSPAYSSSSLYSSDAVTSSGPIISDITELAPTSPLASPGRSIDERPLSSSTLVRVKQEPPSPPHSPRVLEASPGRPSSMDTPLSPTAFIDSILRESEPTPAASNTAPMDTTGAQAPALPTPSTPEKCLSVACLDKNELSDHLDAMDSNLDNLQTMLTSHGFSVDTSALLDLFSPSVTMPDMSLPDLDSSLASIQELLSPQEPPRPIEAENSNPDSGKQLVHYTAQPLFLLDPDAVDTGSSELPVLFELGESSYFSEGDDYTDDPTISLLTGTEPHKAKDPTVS
# [3] = target: Ras and Rab interactor 1/Tyrosine-protein kinase ABL1 (Homo sapiens, UniProt P00519+Q13671); assay type: functional;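 also: biochemical TR-FRET dose-response test measuring inhibition of binding between Rin1 and Abl proteins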
# [4] = Counterscreen for inhibitors of Trypanosoma brucei methionyl tRNA synthetase (MetRS): Luminescence-based cell-based high throughput dose response assay to identify compounds that are cytotoxic to Jurkat human T lymphocyte cells.; assay type: functional
# [5] = target: T2, Protein RecA (Mycobacterium tuberculosis, UniProt P9WHJ3); test: Fluorescence Cell-Free Homogeneous Dose Retest to Identify Inhibitors of RecA-Intein Splicing Activity. [Related pubchem assays (depositor defined):AID2097, AID2223, AID489010, AID492950]; assay type: functional
# T2 sequence (P9WHJ3 whole entry): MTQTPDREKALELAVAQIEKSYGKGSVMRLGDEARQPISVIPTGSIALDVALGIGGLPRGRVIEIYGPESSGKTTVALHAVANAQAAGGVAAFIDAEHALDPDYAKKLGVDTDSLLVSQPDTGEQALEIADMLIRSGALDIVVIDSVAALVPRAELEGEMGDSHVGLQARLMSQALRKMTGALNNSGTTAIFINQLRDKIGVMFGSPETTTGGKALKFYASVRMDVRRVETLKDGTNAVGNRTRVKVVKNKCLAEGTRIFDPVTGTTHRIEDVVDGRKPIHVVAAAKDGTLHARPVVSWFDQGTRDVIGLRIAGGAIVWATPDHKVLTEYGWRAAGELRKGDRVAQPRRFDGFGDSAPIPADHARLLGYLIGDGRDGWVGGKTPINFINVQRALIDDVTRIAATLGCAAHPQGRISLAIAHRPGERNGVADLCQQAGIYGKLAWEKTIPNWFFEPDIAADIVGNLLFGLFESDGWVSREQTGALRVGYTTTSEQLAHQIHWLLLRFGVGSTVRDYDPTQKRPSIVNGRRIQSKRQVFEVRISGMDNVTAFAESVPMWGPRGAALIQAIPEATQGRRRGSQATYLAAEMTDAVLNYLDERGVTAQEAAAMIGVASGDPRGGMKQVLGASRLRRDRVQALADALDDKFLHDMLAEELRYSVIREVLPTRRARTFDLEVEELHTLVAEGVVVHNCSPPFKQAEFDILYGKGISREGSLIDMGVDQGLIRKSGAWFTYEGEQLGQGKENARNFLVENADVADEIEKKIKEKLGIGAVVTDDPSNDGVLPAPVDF
# [6] = target: T3, Methionyl-tRNA synthetase, putative (Trypanosoma brucei brucei, UniProt Q38C91); assay type: functional, Trypanosoma brucei brucei strain 927/4 GUTat10.1
# T3 sequence (Q38C91 whole entry): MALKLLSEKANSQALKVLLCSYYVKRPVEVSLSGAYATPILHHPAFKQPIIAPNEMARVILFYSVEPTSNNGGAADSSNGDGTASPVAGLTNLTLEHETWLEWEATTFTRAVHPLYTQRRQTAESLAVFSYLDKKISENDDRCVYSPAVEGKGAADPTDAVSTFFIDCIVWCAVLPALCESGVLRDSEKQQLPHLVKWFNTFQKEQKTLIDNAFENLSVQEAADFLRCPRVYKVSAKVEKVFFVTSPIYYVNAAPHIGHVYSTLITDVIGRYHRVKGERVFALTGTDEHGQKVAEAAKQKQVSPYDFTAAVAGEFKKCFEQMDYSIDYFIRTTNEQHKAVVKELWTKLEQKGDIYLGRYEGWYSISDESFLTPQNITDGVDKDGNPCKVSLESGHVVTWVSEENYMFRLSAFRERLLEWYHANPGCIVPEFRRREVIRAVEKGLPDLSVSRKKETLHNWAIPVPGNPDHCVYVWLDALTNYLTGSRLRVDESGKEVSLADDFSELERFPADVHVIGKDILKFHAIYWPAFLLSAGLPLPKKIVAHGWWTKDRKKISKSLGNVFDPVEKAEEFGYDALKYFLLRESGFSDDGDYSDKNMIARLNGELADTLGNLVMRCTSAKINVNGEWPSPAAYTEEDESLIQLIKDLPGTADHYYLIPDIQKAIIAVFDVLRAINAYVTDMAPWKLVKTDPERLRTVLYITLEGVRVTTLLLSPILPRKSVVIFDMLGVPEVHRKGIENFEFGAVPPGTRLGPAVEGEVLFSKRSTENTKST
# [7] = target: Transitional endoplasmic reticulum ATPase (Homo sapiens, UniProt P55072, C522A); test: C522A mutant p97 ATPase inhibitors, dose response, counter-screen for p97 inhibitor project, biochemical, luminescence (AID 1544)
# [8] = target: T3, Methionyl-tRNA synthetase, putative; assay type: functional, Trypanosoma brucei brucei strain 927/4 GUTat10.1; remark: listed apart in the source
# [9] = target: E3 ubiquitin-protein ligase UHRF1 (Homo sapiens, UniProt Q96T88); test: Counterscreen for inhibitors of 5-meCpG-binding domain protein 2 (MBD2): TRFRET-based biochemical high throughput dose response assay to identify inhibitors of binding of ubiquitin-like with PHD and ring finger domains 1 (UHRF1) to methylated oligonucleotide.
# [10] = target: Transitional endoplasmic reticulum ATPase (Homo sapiens, UniProt P55072); test: p97 ATPase inhibitors, dose response, biochemical (AID 1534)
# [11] = target: T4, Replicative DNA helicase DnaB (Mycobacterium tuberculosis, UniProt P9WMR3); test: DnaB intein splicing inhibitors, dose response, biochemical, cell-free fluorescence (AID 449749); assay type: functional
# T4 sequence (P9WMR3 whole entry): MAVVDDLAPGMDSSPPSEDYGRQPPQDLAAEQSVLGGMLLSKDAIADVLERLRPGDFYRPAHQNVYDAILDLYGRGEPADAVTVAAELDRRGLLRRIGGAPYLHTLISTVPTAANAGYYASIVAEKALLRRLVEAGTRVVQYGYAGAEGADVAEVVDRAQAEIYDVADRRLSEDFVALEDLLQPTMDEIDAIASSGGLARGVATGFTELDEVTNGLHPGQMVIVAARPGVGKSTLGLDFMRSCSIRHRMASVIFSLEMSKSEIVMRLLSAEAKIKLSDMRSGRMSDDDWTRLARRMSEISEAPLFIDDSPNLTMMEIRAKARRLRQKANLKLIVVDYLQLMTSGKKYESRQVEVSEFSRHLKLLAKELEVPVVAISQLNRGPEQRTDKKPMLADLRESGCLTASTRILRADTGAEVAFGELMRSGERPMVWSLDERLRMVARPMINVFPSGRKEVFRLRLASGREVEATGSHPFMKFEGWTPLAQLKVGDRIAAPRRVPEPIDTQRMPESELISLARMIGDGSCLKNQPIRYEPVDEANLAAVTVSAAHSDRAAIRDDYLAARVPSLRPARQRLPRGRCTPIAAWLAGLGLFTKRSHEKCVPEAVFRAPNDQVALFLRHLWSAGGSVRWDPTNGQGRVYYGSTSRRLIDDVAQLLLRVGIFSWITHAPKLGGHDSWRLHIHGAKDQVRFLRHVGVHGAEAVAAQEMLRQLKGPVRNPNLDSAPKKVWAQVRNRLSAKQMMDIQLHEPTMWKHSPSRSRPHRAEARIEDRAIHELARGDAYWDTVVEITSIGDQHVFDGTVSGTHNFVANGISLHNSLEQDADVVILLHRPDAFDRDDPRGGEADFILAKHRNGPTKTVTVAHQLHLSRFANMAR
# [12] = target: Eukaryotic translation initiation factor 4H (Homo sapiens, UniProt Q15056); test: eIF4H binding inhibition – biochemical, uHTS, fluorescence polarization, translation initiation inhibitor project, primary screen (AID 2012)
# [13] = target: Polyadenylate-binding protein 1 (Homo sapiens, UniProt P11940); test: blockers of PABP interaction with poly(A) – biochemical, fluorescence polarization, […] (AID 2014)
# [14] = target: Aspartyl aminopeptidase (Plasmodium falciparum 3D7, UniProt Q8I2J3)
# [15] = target: Procathepsin L (Homo sapiens, UniProt P07711)
# [16] = target: Peroxisome proliferator-activated receptor gamma/Nuclear receptor corepressor 2 (Homo sapiens, UniProt P37231+Q9Y618); assay type: functional
# [17] = target: T5, Photoreceptor-specific nuclear receptor (Homo sapiens, UniProt Q9Y5X4); assay type: functional
# [18] = target: Signal transducer and activator of transcription 3 (Homo sapiens, UniProt P40763); test: STAT3 activation with BCL3 mRNA and toxicity – cell-based, […], BCL3 qPCR, cytotoxicity, late-stage follow-up, panel member STAT3 Activation (AID 2049)
# [19] = viability loss in HEK293T cells – cell-based, cherry-picks, cytotoxicity control for HIV Vif inhibitor project, dose response (AID 652208); assay type: functional
# [20] = target: Wee1-like protein kinase (Homo sapiens, UniProt P30291); test: HeLa cell cycle G2/M accumulation – FACS, mechanism study for Wee1 degradation inhibitor project, late-stage follow-up, panel member Wee1 Degradation (AID 2088)
# [21] = target: G2/mitotic-specific cyclin-B1 (Homo sapiens, UniProt P14635); test: HeLa cell cycle G2/M accumulation – FACS, mechanism study for Wee1 degradation inhibitor project, late-stage follow-up, panel member Cyclin B Degradation (AID 2088)
# [22] = target: T5, Photoreceptor-specific nuclear receptor; assay type: functional, cell-based
# T5 sequence (Q9Y5X4 whole entry): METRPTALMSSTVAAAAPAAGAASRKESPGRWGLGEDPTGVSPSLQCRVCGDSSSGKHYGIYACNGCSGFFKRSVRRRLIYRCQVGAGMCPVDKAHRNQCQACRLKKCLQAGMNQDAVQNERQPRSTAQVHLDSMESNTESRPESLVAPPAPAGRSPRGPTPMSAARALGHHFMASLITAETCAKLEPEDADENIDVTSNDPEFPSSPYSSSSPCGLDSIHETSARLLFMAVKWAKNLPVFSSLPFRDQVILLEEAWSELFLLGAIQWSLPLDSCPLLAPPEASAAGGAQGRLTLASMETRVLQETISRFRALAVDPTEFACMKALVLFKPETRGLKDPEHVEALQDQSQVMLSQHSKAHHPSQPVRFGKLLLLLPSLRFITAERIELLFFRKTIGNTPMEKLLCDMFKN
# Transitional endoplasmic reticulum ATPase (Homo sapiens, UniProt P55072), sequence (P55072 whole entry): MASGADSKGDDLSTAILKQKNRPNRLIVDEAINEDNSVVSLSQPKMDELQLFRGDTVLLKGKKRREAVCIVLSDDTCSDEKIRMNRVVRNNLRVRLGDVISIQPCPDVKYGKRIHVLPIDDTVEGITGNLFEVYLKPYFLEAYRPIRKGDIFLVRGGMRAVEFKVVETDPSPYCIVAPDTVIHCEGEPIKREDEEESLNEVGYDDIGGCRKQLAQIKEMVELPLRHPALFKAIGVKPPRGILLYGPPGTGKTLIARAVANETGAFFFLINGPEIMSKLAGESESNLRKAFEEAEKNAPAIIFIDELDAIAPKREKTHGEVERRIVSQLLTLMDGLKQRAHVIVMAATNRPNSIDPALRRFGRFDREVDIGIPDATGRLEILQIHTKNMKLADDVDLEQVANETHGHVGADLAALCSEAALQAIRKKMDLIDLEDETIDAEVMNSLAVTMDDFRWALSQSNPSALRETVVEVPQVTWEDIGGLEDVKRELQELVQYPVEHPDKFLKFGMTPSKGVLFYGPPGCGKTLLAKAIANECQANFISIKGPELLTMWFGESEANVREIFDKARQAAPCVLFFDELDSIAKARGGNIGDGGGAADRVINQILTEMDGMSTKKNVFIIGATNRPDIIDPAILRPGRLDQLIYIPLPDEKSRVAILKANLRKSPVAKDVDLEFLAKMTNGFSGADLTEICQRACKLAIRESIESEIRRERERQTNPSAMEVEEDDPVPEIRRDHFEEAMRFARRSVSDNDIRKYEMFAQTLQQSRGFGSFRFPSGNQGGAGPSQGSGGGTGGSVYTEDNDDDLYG
# Wee1-like protein kinase, sequence (P30291 whole entry): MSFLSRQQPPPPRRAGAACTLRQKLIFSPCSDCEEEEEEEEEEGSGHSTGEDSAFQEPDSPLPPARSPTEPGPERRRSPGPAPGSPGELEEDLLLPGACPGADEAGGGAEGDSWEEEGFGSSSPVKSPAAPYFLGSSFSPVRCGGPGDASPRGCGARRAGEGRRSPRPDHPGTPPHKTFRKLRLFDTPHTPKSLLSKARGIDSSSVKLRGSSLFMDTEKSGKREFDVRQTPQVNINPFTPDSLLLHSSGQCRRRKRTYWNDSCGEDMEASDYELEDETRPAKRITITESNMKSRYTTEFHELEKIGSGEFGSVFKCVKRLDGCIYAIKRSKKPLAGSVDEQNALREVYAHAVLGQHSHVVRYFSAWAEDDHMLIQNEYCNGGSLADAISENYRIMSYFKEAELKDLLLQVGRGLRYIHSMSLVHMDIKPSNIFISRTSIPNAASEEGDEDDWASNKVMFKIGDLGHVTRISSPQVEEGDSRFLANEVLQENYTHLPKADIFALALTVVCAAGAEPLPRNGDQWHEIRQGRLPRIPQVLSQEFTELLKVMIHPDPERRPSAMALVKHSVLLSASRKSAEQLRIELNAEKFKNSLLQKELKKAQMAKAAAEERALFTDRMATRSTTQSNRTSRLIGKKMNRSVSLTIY
# Signal transducer and activator of transcription 3, sequence (P40763 whole entry): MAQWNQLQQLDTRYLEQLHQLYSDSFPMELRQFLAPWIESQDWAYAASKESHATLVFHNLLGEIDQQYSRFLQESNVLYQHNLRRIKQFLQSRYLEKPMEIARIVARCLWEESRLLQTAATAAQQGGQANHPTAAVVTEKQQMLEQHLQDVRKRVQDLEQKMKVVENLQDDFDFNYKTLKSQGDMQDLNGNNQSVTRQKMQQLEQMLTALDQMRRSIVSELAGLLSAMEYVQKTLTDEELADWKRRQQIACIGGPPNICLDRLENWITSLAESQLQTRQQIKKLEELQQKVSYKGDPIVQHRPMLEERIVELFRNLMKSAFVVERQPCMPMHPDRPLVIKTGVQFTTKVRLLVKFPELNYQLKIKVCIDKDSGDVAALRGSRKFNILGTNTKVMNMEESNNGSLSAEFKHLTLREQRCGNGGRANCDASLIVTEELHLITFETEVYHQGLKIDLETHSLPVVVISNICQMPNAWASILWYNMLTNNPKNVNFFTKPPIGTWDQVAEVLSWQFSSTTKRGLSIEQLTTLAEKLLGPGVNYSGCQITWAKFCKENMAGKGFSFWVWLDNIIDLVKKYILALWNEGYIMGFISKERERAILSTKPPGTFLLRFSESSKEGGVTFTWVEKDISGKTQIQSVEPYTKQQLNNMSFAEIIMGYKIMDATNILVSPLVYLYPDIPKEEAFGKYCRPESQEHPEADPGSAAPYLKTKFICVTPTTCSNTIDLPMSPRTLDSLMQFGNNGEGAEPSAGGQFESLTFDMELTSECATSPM
# Aspartyl aminopeptidase, sequence (Q8I2J3 whole entry): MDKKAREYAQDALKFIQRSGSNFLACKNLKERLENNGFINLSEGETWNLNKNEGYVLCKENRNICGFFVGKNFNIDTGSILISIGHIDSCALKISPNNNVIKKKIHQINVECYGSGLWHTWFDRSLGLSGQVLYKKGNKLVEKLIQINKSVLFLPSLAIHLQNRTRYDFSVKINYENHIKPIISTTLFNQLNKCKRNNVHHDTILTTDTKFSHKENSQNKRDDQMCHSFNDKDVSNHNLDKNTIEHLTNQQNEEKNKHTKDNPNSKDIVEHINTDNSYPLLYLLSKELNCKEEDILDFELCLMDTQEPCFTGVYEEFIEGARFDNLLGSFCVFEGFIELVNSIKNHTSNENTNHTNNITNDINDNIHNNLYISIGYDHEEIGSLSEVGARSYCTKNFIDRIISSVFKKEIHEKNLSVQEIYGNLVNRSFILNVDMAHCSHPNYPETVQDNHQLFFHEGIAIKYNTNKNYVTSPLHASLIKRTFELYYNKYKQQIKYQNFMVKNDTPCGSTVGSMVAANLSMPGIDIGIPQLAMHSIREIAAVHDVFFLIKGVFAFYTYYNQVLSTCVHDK
# E3 ubiquitin-protein ligase UHRF1, sequence (Q96T88 whole entry, the tested form may be a part): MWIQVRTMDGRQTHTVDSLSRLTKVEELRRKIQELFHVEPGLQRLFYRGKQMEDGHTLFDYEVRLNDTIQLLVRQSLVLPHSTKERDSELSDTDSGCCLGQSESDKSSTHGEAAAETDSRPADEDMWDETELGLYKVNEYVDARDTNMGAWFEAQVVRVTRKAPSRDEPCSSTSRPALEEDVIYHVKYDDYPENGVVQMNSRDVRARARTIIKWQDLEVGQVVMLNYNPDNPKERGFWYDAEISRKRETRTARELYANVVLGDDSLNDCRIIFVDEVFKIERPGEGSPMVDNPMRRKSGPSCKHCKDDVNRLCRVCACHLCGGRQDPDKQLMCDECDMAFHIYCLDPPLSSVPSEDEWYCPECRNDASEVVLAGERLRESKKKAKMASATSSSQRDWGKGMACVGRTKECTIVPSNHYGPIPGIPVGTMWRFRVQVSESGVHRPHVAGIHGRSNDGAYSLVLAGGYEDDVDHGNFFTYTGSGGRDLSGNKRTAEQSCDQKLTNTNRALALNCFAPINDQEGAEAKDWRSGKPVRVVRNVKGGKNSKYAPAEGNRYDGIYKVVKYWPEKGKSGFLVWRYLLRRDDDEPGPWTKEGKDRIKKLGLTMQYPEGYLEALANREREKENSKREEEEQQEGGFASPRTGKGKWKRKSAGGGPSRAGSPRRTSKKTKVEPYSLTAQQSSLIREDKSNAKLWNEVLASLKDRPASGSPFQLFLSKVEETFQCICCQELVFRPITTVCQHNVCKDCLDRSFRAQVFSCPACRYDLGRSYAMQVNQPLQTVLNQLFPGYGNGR
# Tyrosyl-DNA phosphodiesterase 2, sequence (O95551 whole entry): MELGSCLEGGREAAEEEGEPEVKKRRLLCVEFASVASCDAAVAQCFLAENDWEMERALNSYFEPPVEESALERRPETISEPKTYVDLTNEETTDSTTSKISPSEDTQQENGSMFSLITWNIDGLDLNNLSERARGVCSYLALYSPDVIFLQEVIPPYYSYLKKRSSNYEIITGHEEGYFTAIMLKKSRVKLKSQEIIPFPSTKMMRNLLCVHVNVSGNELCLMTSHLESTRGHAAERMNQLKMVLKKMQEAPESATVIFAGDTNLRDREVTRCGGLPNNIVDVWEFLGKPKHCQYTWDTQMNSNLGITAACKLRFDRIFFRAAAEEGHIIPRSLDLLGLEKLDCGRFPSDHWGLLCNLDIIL
# Procathepsin L, sequence (P07711 whole entry): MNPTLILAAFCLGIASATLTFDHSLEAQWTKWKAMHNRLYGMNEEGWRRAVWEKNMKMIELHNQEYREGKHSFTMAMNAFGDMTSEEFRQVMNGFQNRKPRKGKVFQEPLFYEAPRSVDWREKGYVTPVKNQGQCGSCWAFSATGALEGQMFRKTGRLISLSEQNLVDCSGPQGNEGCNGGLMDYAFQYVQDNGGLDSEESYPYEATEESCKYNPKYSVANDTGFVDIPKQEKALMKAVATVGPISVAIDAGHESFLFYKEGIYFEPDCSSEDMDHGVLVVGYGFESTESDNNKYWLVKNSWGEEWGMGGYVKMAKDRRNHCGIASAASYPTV
compound,measurement,setting,value
O=S(=O)(Nc1cc2nc3ccccc3nc2n1Cc1ccccc1)c1ccc(Cl)cc1,IC50,[1],> 14.3 µM (inactive)
same,EC50,[2],> 260 µM (inactive)
same,IC50,[3],> 73.5 µM (inactive)
same,IC50,[4],28.8 µM (inactive)
same,EC50,[5],1.5 µM (active)
same,IC50,[6],2.46 µM (active)
same,IC50,[7],> 50 µM (not active)
same,IC50,[8],4.93 µM (active)
same,IC50,[9],> 43.8 µM (inactive)
same,IC50,[10],> 50 µM (not active)
same,AC50,[11],10.1 µM (active)
CCN(CC)CCCN=C1N[C@@H](c2ccccc2)C(C(=O)OC)=C(C)N1CC,IC50,[12],> 100 µM (inactive)
same,IC50,[13],10.6 µM (active)
O=C(NC(=S)Nn1cnnc1)c1ccccc1Br,IC50,[14],1.5 µM (active)
same,IC50,[15],> 59.6 µM (not active)
O=C(C1=C(O)C(=O)N(CC2CCCO2)C1c1ccc(Cl)cc1Cl)c1ccco1 (configuration not stated),IC50,[16],13.7 µM (not active)
same,IC50,[17],> 39.8 µM (not active)
COc1cc(OC)c(NC(=O)c2cc(CN3CCCC3)on2)cc1Cl,EC50,[18],> 55.7 µM (inactive)
Cc1ccnc(NC(=O)CCCOc2cc(=O)n(C)c3ccccc23)c1,AC50,[19],> 52 µM (inactive)
same,EC50,[20],> 6.19 µM (active)
same,EC50,[21],> 55.7 µM (inactive)
same,IC50,[22],2.97 µM (active)
